Assays:
[1] = test system: setaria glauca L.; test: herbicidal activity, soil treatment one day after sowing; type: in vivo
Description: (§1) The infesting species and the agrarian species have been indicated in Table 1 by letters, as follows:
(§2) Method of evaluation of the results (of tests):
(§3) 1 slight differences with respect to the control;
(§4) 3 = considerable activity with damages that definitely impair the further development of most of the small plants; an activity degree already useful for practical purposes;
(§5) 4 = maximum of activity with lack of germination or total containment of the small plants in the emerging stage.
In the case of an intermediate activity between two classes of the scale, both values are recorded with the one which corresponds to the preeminent activity preceding. […]
(§6) TABLE 3 reports data on the herbicidal activity against infesting herbs, while TABLE 4 reports data concerning the activity on useful species of agricultural cultivations. These tables employ the criterion explained previously. […]

[2] = test system: amaranthus retroflexus L.; test: as above; type: in vivo
Description: as §1
A = amaranthus retroflexus L.
as §2, §3, §4, §5
(§7) In the case of an intermediate activity between two classes of the scale, both values are recorded with the one which corresponds to the preeminent activity preceding.
(§8) TABLE 2 reports the activity data of other compounds that fall within the class which is the object of this invention.
as §6

[3] = test system: triticum vulgare L. (wheat); test: activity on agrarian species, soil treatment one day after sowing; type: in vivo; details: in vivo
Description: as §1
N = triticum vulgare L. (wheat)
as §2
(§9) 0 = no activity and no difference with respect to the control;
as §3, §4, §5, §7, §8
(§10) TABLE 3 reports data on the herbicidal activity against infesting herbs, while TABLE 4 reports data concerning the activity on useful species of agricultural cultivations. These tables employ the criterion explained previously. The product was spread on the soil one day after sowing, in quantities of 1, 3, 6, 8, 10, 12 and 14 kg/ha.

[4] = test system: artemisia vulgaris L.; test: herbicidal activity, soil treatment one day after sowing; type: in vivo
Description: as §1
B = artemisia vulgaris L.
as §2, §3, §4, §5, §7, §8, §6

[5] = test system: echinocloa crus-galli R.S.; test: as above; type: in vivo
Description: as §1
D = echinocloa crus-galli R.S.
as §2, §3, §4, §5, §7, §8, §6

[6] = test system: oryza sativa L. (rice); test: activity on agrarian species, soil treatment one day after sowing; type: in vivo; details: in vivo
Description: as §1
P = oryza sativa L. (rice)
as §2, §9, §3, §4, §5, §7, §8, §10

[7] = test system: vicia sativa L.; test: herbicidal activity, soil treatment one day after sowing; type: in vivo
Description: as §1, §2, §3, §4, §5, §7, §8

[8] = test system: chenopodium album L.; test: as above; type: in vivo
Description: as §1, §2, §3, §4, §5, §7, §8, §6

[9] = test system: pisum sativum L. (pea); test: activity on agrarian species, soil treatment one day after sowing; type: in vivo; details: in vivo
Description: as §1
L = pisum sativum L. (pea)
as §2, §9, §3, §4, §5, §7, §8, §6

[10] = test system: phaseolus vulgaris (bean); test: as above; type: in vivo, Phaseolus vulgaris L.; details: in vivo
Description: as §1
I = phaseolus vulgaris (bean)
as §2, §9, §3, §4, §5, §7, §8, §10

[11] = test system: zea mais L. (corn); test: as above; type: in vivo; details: in vivo
Description: as §1, §2, §9, §3, §4, §5, §7, §8, §10

[12] = test system: avena sativa (oats); test: as above; type: in vivo, Avena sativa L.; details: in vivo
Description: as §1, §2, §9, §3, §4, §5, §7, §8, §10

NC(=O)c1ccccc1Cl [C, 2,chloro-benzamide, reference compound]
activity on E, 0-4 scale ([1]; 6 kg/ha): 0
activity on A, 0-4 scale ([2]; 6 kg/ha): 2
activity on N, 0-4 scale [3]: 0-1
activity on B, 0-4 scale ([4]; 6 kg/ha): 1
activity on D, 0-4 scale ([5]; 6 kg/ha): 0-1
activity on P, 0-4 scale [6]: 0-1
activity on F, 0-4 scale ([7]; 6 kg/ha): 2-3
activity on C, 0-4 scale ([8]; 6 kg/ha): 2

CCCN(CCC)C(=O)c1cc(Cl)cc(Cl)c1Cl [PA303, 2,3,5-trichloro-N,N-di-n. propyl-benzamide, reference compound]
activity on L, 0-4 scale [9]: 1
activity on E, 0-4 scale ([1]; 1 kg/ha): 1-2
activity on E, 0-4 scale ([1]; 2 kg/ha): 3
activity on E, 0-4 scale ([1]; 6 kg/ha): 4
activity on A, 0-4 scale ([2]; 1 kg/ha): 1
activity on A, 0-4 scale ([2]; 4 kg/ha): 2-3
activity on A, 0-4 scale ([2]; 6 kg/ha): 3
activity on B, 0-4 scale ([4]; 1 kg/ha): 1
activity on B, 0-4 scale ([4]; 2 kg/ha): 1
activity on B, 0-4 scale ([4]; 4 kg/ha): 1
activity on B, 0-4 scale ([4]; 6 kg/ha): 1
activity on D, 0-4 scale ([5]; 1 kg/ha): 1-2
activity on D, 0-4 scale ([5]; 4 kg/ha): 3-4
activity on D, 0-4 scale ([5]; 6 kg/ha): 4
activity on P, 0-4 scale [6]: 3
activity on F, 0-4 scale ([7]; 1 kg/ha): 0
activity on F, 0-4 scale ([7]; 2 kg/ha): 0
activity on F, 0-4 scale ([7]; 4 kg/ha): 0-1
activity on F, 0-4 scale ([7]; 6 kg/ha): 0-1
activity on C, 0-4 scale ([8]; 1 kg/ha): 1
activity on C, 0-4 scale ([8]; 2 kg/ha): 1
activity on C, 0-4 scale ([8]; 4 kg/ha): 1-2

CCC(C)N(C(=O)c1ccc(C)c(C)c1)C(C)CC (centres unmarked) [PA233, 3,4-dimethyl-N,N-di-sec.butyl-benzamide]
activity on I, 0-4 scale [10]: 0
activity on L, 0-4 scale [9]: 0
activity on E, 0-4 scale ([1]; 2 kg/ha): 3
activity on E, 0-4 scale ([1]; 4 kg/ha): 3-4
activity on E, 0-4 scale ([1]; 6 kg/ha): 4
activity on A, 0-4 scale ([2]; 6 kg/ha): 2-3
activity on B, 0-4 scale ([4]; 6 kg/ha): 2
activity on D, 0-4 scale ([5]; 2 kg/ha): 2-3
activity on D, 0-4 scale ([5]; 4 kg/ha): 3
activity on D, 0-4 scale ([5]; 6 kg/ha): 4
activity on O, 0-4 scale [11]: 0
activity on G, 0-4 scale [12]: 0
activity on F, 0-4 scale ([7]; 6 kg/ha): 0
activity on C, 0-4 scale ([8]; 6 kg/ha): 2

CCC(C)N(C(=O)c1cccc(Cl)c1)C(C)CC (centres unmarked) [PA215, 3-chloro-N,N-di-sec.butyl-benzamide]
activity on I, 0-4 scale [10]: 0
activity on E, 0-4 scale ([1]; 6 kg/ha): 3
activity on A, 0-4 scale ([2]; 6 kg/ha): 1-2
activity on B, 0-4 scale ([4]; 6 kg/ha): 1-2
activity on D, 0-4 scale ([5]; 6 kg/ha): 3
activity on O, 0-4 scale [11]: 0
activity on G, 0-4 scale [12]: 0
activity on P, 0-4 scale [6]: 0
activity on F, 0-4 scale ([7]; 6 kg/ha): 1-2
activity on C, 0-4 scale ([8]; 6 kg/ha): 1-2

CCC(C)N(C(=O)c1ccc(Cl)c(Cl)c1Cl)C(C)CC (centres unmarked) [PA488, 2,3,4-trichloro-N,N-di-sec.butyl-benzamide]
activity on I, 0-4 scale [10]: 0
activity on L, 0-4 scale [9]: 0
activity on E, 0-4 scale ([1]; 4 kg/ha): 4
activity on E, 0-4 scale ([1]; 6 kg/ha): 4
activity on A, 0-4 scale ([2]; 2 kg/ha): 0
activity on A, 0-4 scale ([2]; 4 kg/ha): 1
activity on A, 0-4 scale ([2]; 6 kg/ha): 3-4
activity on N, 0-4 scale [3]: 0
activity on B, 0-4 scale ([4]; 2 kg/ha): 0
activity on B, 0-4 scale ([4]; 4 kg/ha): 0-1
activity on D, 0-4 scale ([5]; 1 kg/ha): 2
activity on D, 0-4 scale ([5]; 2 kg/ha): 3-4
activity on D, 0-4 scale ([5]; 4 kg/ha): 4
activity on D, 0-4 scale ([5]; 6 kg/ha): 4
activity on G, 0-4 scale [12]: 0
activity on P, 0-4 scale [6]: 0
activity on F, 0-4 scale ([7]; 2 kg/ha): 0
activity on F, 0-4 scale ([7]; 4 kg/ha): 0
activity on F, 0-4 scale ([7]; 6 kg/ha): 0
activity on C, 0-4 scale ([8]; 2 kg/ha): 1-2
activity on C, 0-4 scale ([8]; 4 kg/ha): 3
activity on C, 0-4 scale ([8]; 6 kg/ha): 3

CCC(C)N(C(=O)c1cccc(C)c1)C(C)CC (centres unmarked) [PA226, 3-methyl-N,N-di-sec.butyl-benzamide]
activity on I, 0-4 scale [10]: 0
activity on L, 0-4 scale [9]: 0
activity on E, 0-4 scale ([1]; 2 kg/ha): 2
activity on E, 0-4 scale ([1]; 4 kg/ha): 3-4
activity on E, 0-4 scale ([1]; 6 kg/ha): 4
activity on A, 0-4 scale ([2]; 4 kg/ha): 1-2
activity on A, 0-4 scale ([2]; 6 kg/ha): 2
activity on B, 0-4 scale ([4]; 2 kg/ha): 1
activity on B, 0-4 scale ([4]; 4 kg/ha): 1-2
activity on B, 0-4 scale ([4]; 6 kg/ha): 1-2
activity on D, 0-4 scale ([5]; 2 kg/ha): 2-3
activity on D, 0-4 scale ([5]; 4 kg/ha): 3
activity on D, 0-4 scale ([5]; 6 kg/ha): 4
activity on O, 0-4 scale [11]: 0
activity on G, 0-4 scale [12]: 0
activity on P, 0-4 scale [6]: 0
activity on F, 0-4 scale ([7]; 2 kg/ha): 0
activity on F, 0-4 scale ([7]; 4 kg/ha): 0
activity on F, 0-4 scale ([7]; 6 kg/ha): 0
activity on C, 0-4 scale ([8]; 2 kg/ha): 0-1
activity on C, 0-4 scale ([8]; 4 kg/ha): 1
activity on C, 0-4 scale ([8]; 6 kg/ha): 1-2

CCC(C)N(C(=O)c1cccc(Cl)c1Cl)C(C)CC (centres unmarked) [PA336, 2,3-dichloro-N,N-di-sec.butyl-benzamide]
activity on I, 0-4 scale [10]: 0
activity on L, 0-4 scale [9]: 0
activity on E, 0-4 scale ([1]; 4 kg/ha): 4
activity on E, 0-4 scale ([1]; 6 kg/ha): 4
activity on A, 0-4 scale ([2]; 2 kg/ha): 2-3
activity on A, 0-4 scale ([2]; 6 kg/ha): 4
activity on B, 0-4 scale ([4]; 2 kg/ha): 1
activity on B, 0-4 scale ([4]; 4 kg/ha): 2
activity on B, 0-4 scale ([4]; 6 kg/ha): 3
activity on D, 0-4 scale ([5]; 2 kg/ha): 3-4
activity on D, 0-4 scale ([5]; 4 kg/ha): 4
activity on D, 0-4 scale ([5]; 6 kg/ha): 4
activity on O, 0-4 scale [11]: 0
activity on G, 0-4 scale [12]: 0
activity on P, 0-4 scale [6]: 0
activity on F, 0-4 scale ([7]; 2 kg/ha): 0
activity on F, 0-4 scale ([7]; 4 kg/ha): 0
activity on F, 0-4 scale ([7]; 6 kg/ha): 0
activity on C, 0-4 scale ([8]; 2 kg/ha): 2
activity on C, 0-4 scale ([8]; 4 kg/ha): 3

CCC(C)N(C(=O)c1ccc(Cl)cc1Cl)C(C)CC (centres unmarked) [PA214, 2,4-dichloro-N,N-di-sec.butyl-benzamide]
activity on I, 0-4 scale [10]: 0
activity on L, 0-4 scale [9]: 0
activity on E, 0-4 scale ([1]; 2 kg/ha): 3
activity on E, 0-4 scale ([1]; 4 kg/ha): 3-4
activity on E, 0-4 scale ([1]; 6 kg/ha): 4
activity on A, 0-4 scale ([2]; 2 kg/ha): 1
activity on A, 0-4 scale ([2]; 4 kg/ha): 2-3
activity on A, 0-4 scale ([2]; 6 kg/ha): 3-4
activity on B, 0-4 scale ([4]; 2 kg/ha): 1
activity on B, 0-4 scale ([4]; 4 kg/ha): 2
activity on D, 0-4 scale ([5]; 4 kg/ha): 3-4
activity on D, 0-4 scale ([5]; 6 kg/ha): 4
activity on O, 0-4 scale [11]: 0
activity on G, 0-4 scale [12]: 0
activity on P, 0-4 scale [6]: 0
activity on F, 0-4 scale ([7]; 2 kg/ha): 0
activity on F, 0-4 scale ([7]; 4 kg/ha): 0
activity on F, 0-4 scale ([7]; 6 kg/ha): 0
activity on C, 0-4 scale ([8]; 2 kg/ha): 1
activity on C, 0-4 scale ([8]; 4 kg/ha): 1-2

CCC(C)N(C(=O)c1ccccc1Cl)C(C)CC (centres unmarked) [PA215 2,chloro-N,N-disec.butyl-benzamide, 2-chloro-N,N-di-sec.butyl-benzamide]
activity on I, 0-4 scale [10]: 0
activity on L, 0-4 scale [9]: 0
activity on E, 0-4 scale ([1]; 6 kg/ha): 3
activity on A, 0-4 scale ([2]; 6 kg/ha): 2
activity on B, 0-4 scale ([4]; 6 kg/ha): 1
activity on D, 0-4 scale ([5]; 6 kg/ha): 2-3
activity on O, 0-4 scale [11]: 0
activity on G, 0-4 scale [12]: 0
activity on P, 0-4 scale [6]: 0
activity on F, 0-4 scale ([7]; 6 kg/ha): 0
activity on C, 0-4 scale ([8]; 6 kg/ha): 0-1

Reference: US3982931A, “N,N-di-sec.butyl-benzamide herbicides” (priority 1967, dated 1976)
